According to paper PMC12750388, “Coumarin-1,2,3-Triazole Conjugates as Molecular Scaffolds for the Selective Induction of ROS-Driven Apoptosis in Cancer Cells in the Development of Pyruvate Kinase M2 Inhibitors” (ACS Omega, 2025):

What was measured:
B16–F10 = assay: MTT cell viability assay, B16–F10; type: cell-based, murine
SCC-9 cells [1] = assay: MTT cell viability with N-acetyl-L-cysteine pretreatment; type: cell-based, human; conditions: SCC-9, 48 h; 7f 1 × IC50, menadione 20 μM
Procedure: The production of reactive oxygen species (ROS) was assessed by the detection of hydrogen peroxide (H2O2) using the ROS-Glo H2O2 assay kit (Promega Corporation, Madison, WI, USA; G8820). […] A plate with wells without cells was used as a control. Cells and cell-free wells remained in treatment at times of interest, and 2 h before completion of the times, well volumes were removed to reduce to 40 μL per well. Then the positive control of menadione (Sigma-Aldrich Co., St. Louis, MO, USA), a polycyclic aromatic ketone based on 1,4-naphthoquinone, was used to treat its respective well, and H2O2 substrate from the kit was added for all treatments, followed by the incubation of the plate for the remaining 2 h. Then the detection solution was added, and the plates remained at room temperature for 20 min, following the reading in the TD 20/20 luminometer (Turner Designs, Sunnyvale, CA, USA). The reading of bioluminescence detected is indicated as arbitrary units (a.u.). Additionally, the cell viability was assessed through pretreatment of cells with 10 mM N-acetyl-L-cysteine (NAC) (Sigma-Aldrich Co., St. Louis, MO, USA) for 2 h. […] At the end of the time, the MTT cell viability assay was performed.

SCC-25 = assay: MTT cell viability assay, SCC-25; type: cell-based, human
Procedure: (§1) The viability of SCC cell lines and primary human fibroblast cells was evaluated using the MTT assay to determine half maximal inhibitory concentration (IC50). Briefly, cells were grown in triplicate in 96-well plates (5 × 10^3 cells/well) until confluence. Then the medium was removed, fresh medium was added, and the cells were returned to the incubator in the presence of different compounds. DMSO at the same concentrations was used as a 100% cell viability control. After 48 h, cells were incubated with 5 mg/mL MTT reagent (3-(4,5-dimethyl-2-thiazolyl)-2,5-diphenyl-2-H-tetrazolium bromide) (Sigma-Aldrich Co., St. Louis, MO, USA) for 3.5 h. After that, formazan crystals were dissolved in MTT solvent solution (DMSO/methanol 1:1 v/v), and the absorbance at 560 nm was evaluated using an EPOCH microplate spectrophotometer (BioTek Instruments, Winooski, VT, USA) with the background absorbance at 670 nm subtracted. Each of the 12 compounds (7a–7l) was tested at six different concentrations, ranging from 6.25 to 200 μM in cancer and normal cell lines. Control (carboplatin) was tested at six different concentrations ranging from 25 μM to 800 μM in cancer cells and from 50 μM to 1600 μM in normal cells.
(§2) Half-maximal inhibitory concentration (IC50) values were obtained from the MTT assay of at least three independent replicates through nonlinear regression analysis using GraphPad Prism 5.0 software (Intuitive Software for Science, San Diego, CA, USA). Data were presented as means ± standard deviation (SD). A log dose–response curve (inhibitor vs response) using the least-squares method was used to determine the IC50 and SD from the data. The selectivity index (SI) was calculated as the ratio between the IC50 in normal cells and the IC50 in cancer cells, obtained by dividing the IC50 of normal cells by the IC50 of cancer cells.

SCC-4 = assay: MTT cell viability assay, SCC-4; type: cell-based, human
Procedure: as §1, §2

[2] = system: Primary Gingival Fibroblast; assay: MTT cell viability assay, normal cells; type: cell-based, human
Procedure: as §1, §2

Hep-G2 = assay: MTT cell viability assay, Hep-G2; type: cell-based, human
SCC-9 cell line = assay: MTT cell viability assay, SCC-9; type: cell-based, human
Procedure: as §1, §2

Hemolysis assay = type: cell-based; conditions: isolated human erythrocytes, pH 7.5, read-out: level of hemolysis
Procedure: (§3) A hemolysis assay to evaluate surfactant effects of tested substances was performed using human blood approved by the Research Ethics Committee of Universidade Federal Fluminense (CAAE: 43134721.4.0000.5626). Erythrocytes are isolated upon three repeated centrifugation cycles at 1500 rpm for 15 min. Between each cycle of centrifugation, supernatant was removed, and a pH 7.5 PBS (phosphate-buffered saline) solution supplemented with 10 mM glucose was added to remove lysed erythrocytes. The number of cells was determined in an Automatic Cell Counter (Thermo Fisher, Waltham, MA, USA). Erythrocytes were then plated in 96-well plates at a concentration of 4 × 10^8 cells/well in triplicates, and 10 μL of compounds were added at a final concentration of 300 μM in PBS with glucose (final volume 100 μL). Ten μL of PBS was used as a negative control, and 10 μL of PBS with 0.1% Triton X-100 was used as a positive control. Data reading was performed with EPOCH (BioTek Instruments, Winooski, VT, USA) at an absorbance of 540 nm.

erythrocytes = assay: Hemolysis assay; type: cell-based; conditions: human erythrocytes, 300 μM
Procedure: as §3

SCC-9 cells [3] = assay: Cell cycle and sub-G1 analysis by flow cytometry; type: cell-based, human
Procedure: The interference of 7f in the cell cycle (G1, […], and G2/M) and DNA fragmentation (sub-G1) was assessed by flow cytometry analysis using a Guava Muse Cell Analyzer (Cytek Biosciences, Fremont, CA, USA). DNA staining was conducted using a pH 7.6 propidium iodide buffer composed of 3.4 mM Trizma Hydrochloride (Sigma-Aldrich Co., St. Louis, MO, USA), 10 mM NaCl (Sigma-Aldrich Co., St. Louis, MO, USA), 0.1% (v/v) NP40 (Sigma-Aldrich Co., St. Louis, MO, USA), 700 U/L RNase, and 0.075 mM propidium iodide (Sigma-Aldrich Co., St. Louis, MO, USA). An amount of 1 × 10^5 and 5 × 10^5 SCC-9 cells were seeded in six-well plates for the treatment with the negative control (DMSO) and 7f, respectively. […] Cells were then trypsinized and stained with propidium iodide buffer. DNA content was analyzed by collecting 10,000 events in the aforementioned cytometer. Data were analyzed using Flowing Software (Turku Biosciences, Turku, Finland).

[4] = versus human gingival fibroblast

SMILES: O=C1C=C(OCc2cn(CCCOc3cc(=O)oc4ccccc34)nn2)C(=O)c2ccccc21 [Compound 7f, 2-((1-(3-((2-Oxo-2H-chromen-4-yl)oxy)propyl)-1H-1,2,3-triazol-4-yl)methoxy)naphthalene-1,4-dione]
- IC50 (B16–F10; Mus musculus, B16-F10, MTT, murine melanoma): 4.93 µM
- SI B16–F10 (B16–F10; [4]): 4.61
- cell viability in the presence of 10 mM N-acetyl-L-cysteine (NAC) (SCC-9 cells [1]): NAC protected cell death
- IC50 (SCC-25; Homo sapiens, SCC-25, MTT, 48 h): 11.1 µM
- SI SCC-25 (SCC-25; IC50 human gingival fibroblast / IC50 SCC-25): 2.05
- IC50 (SCC-4; Homo sapiens, SCC-4, MTT, 48 h): 7.93 µM
- SI SCC-4 (SCC-4; IC50 human gingival fibroblast / IC50 SCC-4): 2.87
- IC50 ([2]; Homo sapiens, Fibroblast, MTT, 48 h, normal cells): 22.8 µM
- Average SI ([2]; average of SI for SCC-9, SCC-4 and SCC-25 versus gingival fibroblast): 2.26
- IC50 (Hep-G2; HepG2, MTT, human hepatocellular carcinoma): 16 µM
- SI Hep-G2 (Hep-G2; [4]): 1.42
- IC50 (SCC-9 cell line; Homo sapiens, SCC-9, MTT, 48 h): 12.3 µM
- SI SCC-9 (SCC-9 cell line; IC50 human gingival fibroblast / IC50 SCC-9): 1.85
- hemolysis at 300 µM (Hemolysis assay): ~5%
- hemolytic activity / membrane integrity (erythrocytes): lack of significant hemolytic activity
- S-phase arrest versus control (DMSO) (SCC-9 cells [3]; SCC-9, 2 × IC50, 24 h): approximately twice as frequent as in the control group
- cell cycle S population (SCC-9 cells [3]; SCC-9, 2 × IC50, 24 h (DMSO 12.33%)): 22.99%
- cell cycle G2/M population (SCC-9 cells [3]; SCC-9, 2 × IC50, 24 h (DMSO 22.59%)): 14.45%
- cell cycle G1 population (SCC-9 cells [3]; SCC-9, 2 × IC50, 24 h (DMSO 64.99%)): 62.31%
- Sub-G1 population (DNA fragmentation) (SCC-9 cells [3]; SCC-9, 2 × IC50, 48 h (DMSO 5.04%)): 29.84%
- increase in the sub-G1 population (SCC-9 cells [3]; SCC-9, 48 h, versus DMSO): 5 fold
